Target: T1, TET-responsive system (tTA/PhCMV*-1) (Escherichia coli, UniProt P04483)
T1 construct: expressed in transfected cells; host or cells: CHO-K1 clones CHO-TWIN195 and CHO-TWIN1108 (pTWIN1)
Test: SEAP reporter assay, CHO-TWIN clones transfected with pMF111 (PhCMV*-1-SEAP)
Type: cell-based
Conditions: CHO-TWIN1108 + pMF111; for SEAP Production (%): crossregulation
From the text: pTWIN contains both PIT and tTA in a PSV40 -driven dicistronic configuration. For construction of pTWIN, PIT was first transferred from pMF156 as an EcoRI/HindIII fragment to the corresponding sites of pSBC-1 (EcoRI/HindIII; resulting in pMF167) before the PIT expression unit could be fused to the tTA expression unit contained on pSBC2-tTA (Fussenegger et al., 1997, supra) via SspI/NotI sites. Thus, pTWIN contains the dicistronic PSV40 -PIT-IRES-tTA-pA expression cassette.
Chinese hamster ovary cells (CHO-K1, ATCC: CCL 61), Baby hamster kidney cells (BHK-21, ATCC: CRL-8544), and HeLa cells (ATCC: CRL-7923) as well as stable cell lines CHO-PIT1, CHO-PIT2, CHO-TWIN195, CHO-TWIN1108 and CHO-PIT1-SEAP were cultured as described before (Fussenegger et al., 1998, Nat. Biotechnol. 16,468-472) in the presence of appropriate antibiotics: G418 400 μg/ml; zeocin 100 μg/ml. Optimized CaPO4 protocols were used for high efficiency transient transfection of all cell lines (id). Transient transfected cells were routinely analyzed after 48 h for GFP or SEAP expression using fluorescence microscopy and p-nitrophenolphosphate-based light absorbance timecourse, respectively, as described before (Fussenegger et al., 1998, Nat. Biotechnol. 16, 468-472; Berger et al., 1988, Gene 66, 1-10 b). For construction of stable CHO-PIT and CHO-TWIN cell lines, CHO-K1 was cotransfected either with pMF156 or pTWIN1 and pSV2neo carrying the G418 resistance gene. CHO-PIT1-SEAP was constructed by cotransfection of pMF172 and pZeoSV2 (Invitrogen). For assessment of dose-response characteristics of PPIR -regulated gene expression, CHO-PIT1-SEAP were cultured at cell densities of 150,000/ml for 48 at various PI concentrations. The mixed populations were cloned using FACS-mediated single-cell-sorting (FACStar^Plus; Beckton Dickinson). Gel retardation assay were performed as described (Salah-Bey et al., 1995, supra) using Pip purified from an overproducing strain of E. coli. Pip (0.02 pmol) was titrated with a range of antibiotic concentrations in a reaction volume of 20 μl. Protein solutions were pre-incubated at room temperature for 15 min. in the absence or presence of PI or its derivative quinupristin in a buffer containing 10 mM Tris (pH 7.8), 10 mM MgCl2, 300 mM NaCl, 2 mM DTT and 10% glycerol. An EcoRI-HindII PPTR fragment (0.02 pmol) containing three Pip binding sites (radiolabelled using α-^32 P)dATP was added and incubated for 15 min. To minimize nonspecific protein binding and increase protein stability, 2 μg of poly dIdC and 20 μg BSA were included in the incubation mix. Protein-DNA complexes were separated on 5% polyacrylamide,TBE gels and visualized by autoradiography.
CHO-TWIN195 and CHO-TWIN1108 were transfected under identical conditions with the isogenic plasmids containing the SEAP gene under control of the tTA-activated promoter PhCMV*-1 (pMF111) or the PIT-activated promoter PPIR (pMF172). Transfected cells were grown for 48 h in the presence or absence of either antibiotic prior to assay of SEAP activity.
Table 6: Comparison of the regulation performance of streptogramin- (PI and virginiamycin; VIR) and tetracycline-based gene regulation systems. The two cell clones CHO-TWIN195 and CHO-TWIN1108 containing both pristinamycin- and tetracycline-dependent transactivators were transfected with either the streptogramin-responsive or the TET-responsive SEAP reporter plasmids pMF172 (PPIR -SEAP) and pMF111 (PhCMV*-1 -SEAP), respectively, and the relative SEAP production was assessed. SEAP production values are normalized by SEAP activities under the antibiotic-free, active promoter conditions as follows: pMF172 in CHO-TWIN195:1.7 mU/ml; in CHO-TWIN1108 : 1.8 mU/ml. pMF111 in CHO-TWIN195 : 18.6 mU/ml; in CHO-TWIN1108 : 19.2 mU/ml.
Table 7: Compatibility of the streptogramin- and tetracycline-based gene regulation systems. Crossregulation of pristinamycin (PI) and the tetracyclines doxycycline (DOX) and tetracycline (TET). […]

T1 sequence (P04483 whole entry, added parts left off): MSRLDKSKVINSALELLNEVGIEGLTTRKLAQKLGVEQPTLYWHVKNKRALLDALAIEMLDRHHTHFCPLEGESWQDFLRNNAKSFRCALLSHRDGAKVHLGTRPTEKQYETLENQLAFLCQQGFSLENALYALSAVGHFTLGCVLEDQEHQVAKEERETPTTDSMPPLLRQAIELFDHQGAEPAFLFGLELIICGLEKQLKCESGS

Substance: pristinamycin I [PI]
- Effect on expression from the TET-responsive system: no effect
- SEAP Production (%) (2 μg/ml): 94.8 ± 5.3%
- SEAP Production (%) (10 μg/ml, 2880 min): 92.4 ± 7.9%

From US6287813A, “Antibiotic-based gene regulation system” (Cistronics Cell Technology GmbH, priority 1999, dated 2001)
